Article PMC12598866, “A Comparative Study of Virucidal and Virustatic Multivalent Entry Inhibitors” (The Journal of Physical Chemistry. B, 2025)
Like-named read-outs stand apart in the source and are kept apart here.

Experiments:
BSA = target: T1, BSA (Bos taurus, UniProt P02769); assay: Isothermal titration calorimetry with BSA; format: binding, bovine; settings: ITC
T1 construct: purchased Sigma-Aldrich

[1] = Cytotoxicity assay on Vero cells (MTS); format: cell-based; settings: African green monkey
Method: Cytotoxicity assay was performed on the Vero cell line with the MTS assay. The cells were plated for 24 h in DMEM medium containing 10% FBS and 1% penicillin/streptomycin with a seeding density of 2 × 10^4 per well in a 96-well plate. […] Then, the cells were washed with PBS twice, followed by the addition of 20 μL MTS reagents together with 80 μL DMEM medium. They were then incubated at 37 °C for 4 h. The cell viability was checked by absorbance at 490 nm with a plate reader.

H3N2 [2] = assay: microbe, parasite or virus in culture; format: cell-based; settings: Influenza A virus, posttreatment condition, MDCK cells
[3] = Cytotoxicity assay for MDCK (MTT); format: cell-based; settings: dog, MDCK cells
Method: MTT assay was used to evaluate the cytotoxicity on MDCK cells. 10^4 cells per well were seeded in a 96-well plate 1 day before the assay. A dose range of each drug (from 4.11 μM to 1000 μM) was added to the cells in serum-free medium for MDCK cells. The antivirals were incubated on the cells for 24 h at 37 °C. After incubation, the cells were washed, and MTT reagent (Promega) was added to the cells for 4 h at 37 °C according to the manufacturer’s instructions. The cells were then washed, and 50 μL of DMSO was added to free the reagent. Subsequently, the absorbance was read at 579 nm. Percentages of viability were calculated by comparing the absorbance in treated wells and untreated conditions.

HSV-2 [4] = test system: HSV-2; parameters: method as in Zhu et al., 2024 (citation number not given); settings: earlier paper of the authors; ref Zhu et al., 2024 (citation number not given); cited from earlier work
HSV-2 [5] = test system: HSV-2; parameters: method as in Zhu et al., 2024 (citation number not given); settings: earlier paper of the authors on benzene-core MEIs; ref Zhu et al., 2024 (citation number not given); read-out: IC50 against HSV-2; cited from earlier work
H3N2 [6] = test system: H3N2
H1N1N09 = assay: Influenza virucidal assay; format: cell-based, Influenza A/Netherlands/602/2009 (H1N1)
[7] = H2O, 25 °C (Table 5), read-out: K d (BSA)

T1 sequence (P02769 25-607): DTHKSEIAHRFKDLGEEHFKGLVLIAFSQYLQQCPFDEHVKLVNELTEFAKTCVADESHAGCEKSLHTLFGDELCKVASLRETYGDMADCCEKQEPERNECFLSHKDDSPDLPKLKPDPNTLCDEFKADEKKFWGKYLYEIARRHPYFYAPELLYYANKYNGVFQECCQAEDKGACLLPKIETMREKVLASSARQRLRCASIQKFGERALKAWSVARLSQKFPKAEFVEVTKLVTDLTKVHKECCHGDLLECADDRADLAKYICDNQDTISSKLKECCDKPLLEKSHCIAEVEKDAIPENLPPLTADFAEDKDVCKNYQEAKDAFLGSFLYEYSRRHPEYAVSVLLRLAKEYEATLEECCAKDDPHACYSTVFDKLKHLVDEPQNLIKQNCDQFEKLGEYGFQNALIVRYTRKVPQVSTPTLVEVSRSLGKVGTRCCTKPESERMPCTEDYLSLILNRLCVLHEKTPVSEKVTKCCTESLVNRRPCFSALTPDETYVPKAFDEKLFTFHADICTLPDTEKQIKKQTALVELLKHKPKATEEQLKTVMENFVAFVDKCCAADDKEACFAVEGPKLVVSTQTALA

Structure (SMILES) | ΔG (BSA) (BSA; H2O, 25 °C (Table 5)) | ΔH (BSA) (BSA; H2O, 25 °C (Table 5)) | –ΔTS (BSA) (BSA; H2O, 25 °C (Table 5)) | Kd (BSA; [7]) [µM] | -∆TS (BSA) (BSA; PBS, 25 °C (Table S3)) [kcal/mol] | Kd (BSA; PBS, 25 °C (Table S3)) [µM] | N (BSA) (BSA; PBS, 25 °C (Table S3)) | ∆G (BSA) (BSA; PBS, 25 °C (Table S3)) [kcal/mol] | ∆H (BSA) (BSA; PBS, 25 °C (Table S3)) [kcal/mol] | -∆TS (BSA) (BSA; PBS, 37 °C (Table S3)) [kcal/mol] | Kd (BSA; PBS, 37 °C (Table S3)) [µM] | N (BSA) (BSA; PBS, 37 °C (Table S3)) | ∆G (BSA) (BSA; PBS, 37 °C (Table S3)) [kcal/mol] | ∆H (BSA) (BSA; PBS, 37 °C (Table S3)) [kcal/mol] | CC50 at 48 h [1] [µM] | IC50 (H3N2 [2]) [µM] | CC50 at 24 h [3] [µM] | inhibition mechanism with HSV-2 (HSV-2 [4]) | N (binding sites, BSA) (BSA; H2O, 25 °C (Table 5)) | also measured
O=S(=O)(O)OCCCCCCCCCCCSCc1cc(CSCCCCCCCCCCCOS(=O)(=O)O)cc(CSCCCCCCCCCCCOS(=O)(=O)O)c1 [B3C11SO4] | –7.71 kcal/mol | –5.4 kcal/mol | –2.31 kcal/mol | 2.23 | -9.86 | 3.8 | 3.21 | -7.46 | 2.46 | -9.8 | 1.37 | 2.58 | -8.32 | 1.48 | 313 ± 28.7 | 8.6 | 12.2 ± 0.94 | virucidal |  | IC50 (HSV-2 [5]): 26.2 µM
O=S(=O)(O)CCCCCCCCCCCSCc1cc(CSCCCCCCCCCCCS(=O)(=O)O)cc(CSCCCCCCCCCCCS(=O)(=O)O)c1 [B3C11SO3] | –7.15 kcal/mol | –9.08 kcal/mol | 1.93 kcal/mol | 5.82 |  |  |  |  |  |  |  |  |  |  | > 546 | 24.8 ± 1.2 | > 415 | virustatic |  | -∆TS (BSA) (BSA; H2O, 25 °C (Table S3)): 1.93 kcal/mol; N (BSA) (BSA; H2O, 25 °C (Table S3)): 1.1; ∆G (BSA) (BSA; H2O, 25 °C (Table S3)): -7.15 kcal/mol; ∆H (BSA) (BSA; H2O, 25 °C (Table S3)): -9.08 kcal/mol; -∆TS (BSA) (BSA; H2O, 37 °C (Table S3)): 0.272 kcal/mol; Kd (BSA; H2O, 37 °C (Table S3)): 4.97 µM; N (BSA) (BSA; H2O, 37 °C (Table S3)): 0.838; ∆G (BSA) (BSA; H2O, 37 °C (Table S3)): -7.53 kcal/mol; ∆H (BSA) (BSA; H2O, 37 °C (Table S3)): -9.78 kcal/mol; Virucidal activity, FluB (FluB): S; Virucidal activity, H3N2 (H3N2 [6]): S; Virucidal activity, V-1 (HSV-1): S; Virucidal activity, H1N1N09 (H1N1N09): S; Virucidal activity, H1N1 clinical (H1N1 clinical): S
O=S(=O)(O)OCCCCCCCCCCCSCc1cc2c(cc1CSCCCCCCCCCCCOS(=O)(=O)O)OCCOCCOc1cc(CSCCCCCCCCCCCOS(=O)(=O)O)c(CSCCCCCCCCCCCOS(=O)(=O)O)cc1OCCOCCO2 [C4C11SO4] | –6.07 kcal/mol | –2.73 kcal/mol | –3.34 kcal/mol | 35.7 | -3.6 | 161 | 10 | -5.18 | -1.58 | -4.71 | 8.47 | 7.6 | -7.2 | -2.49 | > 657 | 18.3 ± 0.75 | > 194 |  | 2.5 | 
O=S(=O)(O)CCCCCCCCCCCSCc1cc2c(cc1CSCCCCCCCCCCCS(=O)(=O)O)OCCOCCOc1cc(CSCCCCCCCCCCCS(=O)(=O)O)c(CSCCCCCCCCCCCS(=O)(=O)O)cc1OCCOCCO2 [C4C11SO3] | –6.81 kcal/mol | –0.934 kcal/mol | –5.88 kcal/mol | 10.3 | -2.06 | 124 | 10 | -5.33 | -1.58 | -7.9 | 1.64 | 2.6 | -8.21 | -0.315 | > 358 | 52.6 ± 0.5 | 202.3 ± 0.76 |  | 2.63 | 
